Patent US8816151B2, “Stat5b transgenic mice and methods of use thereof” (Georgia Health Sciences University Research Institute, Inc., priority 2012, dated 2014)

Tests used:
[1] = test system: CD8+ lymphoma cells derived from F1.Stat5bTg mice; experiment: In vivo hollow fiber assay, lymphoma cells from F1.Stat5bTg mice; parameters: species or system mouse; settings: hollow fiber assay (data not shown)
[2] = test system: CD150; experiment: CD150 expression by FACS in treated NOD.Stat5bTg mice; assay type: in vivo, mouse; settings: for CD150 expression on CD8+ thymocytes: NOD.Stat5bTg mice, treatment for 2 weeks, intraperitoneal; for CD150 expression in peripheral blood CD8+ T cells: 10-week old NOD.Stat5bTg mice treated for 2 weeks
Procedure: (§1) AG490 (30 mg/kg/day) and STAT5 inhibitor CNH (40 mg/kg/day) purchased from Calbiochem (La Jolla, Calif.) were injected intraperitoneally into F1 and NOD.Stat5b transgenic lines. Xanthohumol and apigenin (>98% purity by HPLC) purchased from Sigma (St. Louis, Mo.) were used in the chemoprevention experiments. Xanthohumol (100 mg/kg/day) and Apigenin (200 mg/kg/day) were injected alone or in combination intraperitoneally into NOD.Stat5b^Tg mice.
(§2) Single-cell suspensions from thymus, spleen, lymph nodes and hollow fibers were stained and analyzed using a fluorescence-activated cell sorting (FACS) flow cytometer (BD Biosciences) with CELLQuest 3.3 software (Becton Dickinson, San Jose, Calif.). All antibodies were purchased from BD PharMingen (San Diego, Calif.) except anti-CD150-PE from Biolegend (San Diego, Calif.). For intracellular staining, cells were fixed and permeablized using Cytofix/Cytoperm solution (BD PharMingen), followed by P-Stat5 (pY694)-APC staining.

[3] = test system: phosphorylated STAT5; experiment: STAT5 phosphorylation (p-STAT5) by Western blotting and FACS in treated NOD.Stat5bTg mice; assay type: in vivo, mouse; settings: for p-STAT5 expression in thymocytes: NOD.Stat5bTg mice, treatment for 2 weeks, Western analysis and FACS; for STAT5 activation (pSTAT5) in peripheral blood CD8+ T cells: 10-week old NOD.Stat5bTg mice treated for 2 weeks, FACS
Procedure: as §1, §2
Whole cell extracts were prepared from thymus or spleens using RIPA lysis buffer (Santa Cruz) supplemented with protease inhibitors. Western blot analysis was carried out as reported (29) by probing the blots with rabbit anti-phospho-Stat5 (Tyr694), rabbit anti-Stat5 or mouse anti-β-actin (Santa Cruz biotechnology), washed, and incubated with a horseradish peroxidase-conjugated anti-rabbit or anti-mouse antibody (Santa Cruz biotechnology). Immunopositive bands were photographed (Versadoc; Bio-Rad) after blots were developed with an enhanced chemiluminescent substrate (Pierce Chemical Co).

[4] = test system: CD8+ thymocytes; experiment: Number of CD8+ thymocytes in treated NOD.Stat5bTg mice; assay type: in vivo, mouse; settings: treatment for 2 weeks
Procedure: AG490 (30 mg/kg/day) and STAT5 inhibitor CNH (40 mg/kg/day) purchased from Calbiochem (La Jolla, Calif.) were injected intraperitoneally into F1 and NOD.Stat5b transgenic lines. Xanthohumol and apigenin (>98% purity by HPLC) purchased from Sigma (St. Louis, Mo.) were used in the chemoprevention experiments. Xanthohumol (100 mg/kg/day) and Apigenin (200 mg/kg/day) were injected alone or in combination intraperitoneally into NOD.Stat5b^Tg mice. Single-cell suspensions from thymus, spleen, lymph nodes and hollow fibers were stained and analyzed using a fluorescence-activated cell sorting (FACS) flow cytometer (BD Biosciences) with CELLQuest 3.3 software (Becton Dickinson, San Jose, Calif.). All antibodies were purchased from BD PharMingen (San Diego, Calif.) except anti-CD150-PE from Biolegend (San Diego, Calif.). For intracellular staining, cells were fixed and permeablized using Cytofix/Cytoperm solution (BD PharMingen), followed by P-Stat5 (pY694)-APC staining.

[5] = test system: lymphoma in NOD.Stat5bTg mice; experiment: Lymphomagenesis in NOD.Stat5bTg mice; assay type: in vivo, mouse; settings: 5 week-old NOD.Stat5bTg mice, three cycles of 3-week on and 3-week off
Description: In several experiments, mice were monitored for tumors through physical examination. Mice showing sufficient signs of pain and suffering including thymic and cervical lymphoid enlargement were euthanized for a complete necropsy. Final diagnosis of disease was established by clinical, pathologic and FACS analysis. Images of H&E staining were visualized with an Axiophot I microscope (Carl Zeiss) equipped with a Plan Neofluar 40X objective (FIG. 1c). Images were captured with an Axiocam color CDD camera, and treated on a computer with Axiovision software (Carl Zeiss).
as §1
Since AG490 and STAT5b inhibitor CNH can inhibit STAT5 function and CD150 expression, they could delay lymphomagenesis. […] STAT5 inhibitors are potentially very effective in treating cancers with fewer unpleasant side effects. To test this possibility, CNH (40 mg/kg/day) was used to treat 5 week-old NOD.Stat5^Tg mice with three cycles of 3-week on and 3-week off.

[6] = test system: Lymphoma cells from NOD.Stat5bTg mice; experiment: In vivo hollow fiber assay, lymphoma cells from NOD.Stat5bTg mice; parameters: species or system mouse; settings: lymphoma cells from NOD.Stat5bTg mice in hollow fibers in nude mice, 4 days of daily treatment
Description: Cellmax implant membranes were purchased from Spectrum Laboratories Inc. (Rancho Dominguez, Calif.). Lymphoma cells from NOD.Stat5b^Tg mice were harvested, suspended in cold phosphate buffered saline (PBS) and introduced into a 15 cm length of hollow fiber. The fiber was heat-sealed at 20 mm intervals, and each segment was separated using a pair of scissors. Intraperitoneal implantation in methoxyflurane anesthetized 6 week-old nude mice were accomplished via a dorsal incision which allowed passage of the hollow fiber into abdomen. The abdominal wall is closed using skin staples. After 3 days of transplantation, mice with implants were treated daily with either AG490 (30 mg/kg/day) or CNH (40 mg/kg/day). Single cell suspensions were obtained after 4 days of treatment by cutting off the sealed ends of the fibers. Cells were then washed twice with PBS and further processed for flow cytometry.
as §2, with “For intracellular staining, cells were fixed and permeablized using Cytofix/Cytoperm solution (BD PharMingen), followed by P-Stat5 (pY694)-APC staining.” left out

[7] = test system: Ckmt2, Dgat2, Myl4, Csrp3, Nppa, Sln and Myh6; experiment: Real-time RT-PCR of genes up-regulated in NOD.Stat5bTg mice; assay type: in vivo, mouse; settings: normalized with GAPDH, versus vehicle-treated NOD.Stat5bTg mice
Procedure: as §1
RNA was isolated from thymus using the miRACLE™ total RNA isolation kit (Jinfiniti Biosciences) or RNeasy® kit (QIAGEN) and used for microarray and real-time RT-PCR analyses. The Illumina's MouseRef-8 v2.0 Expression BeadChip was used for transcriptional analysis. This BeadChip targets approximately 25,600 well-annotated RefSeq transcripts, over 19,100 unique genes, and enables the interrogation of eight samples in parallel. Probe preparation and hybridization were carried out according to Manufacture's recommendation. The microarray data are MIAME compliant and have been deposited in NCBI Gene Expression Omnibus and are accessible through GEO Series accession number GSE31526.
Real-time PCR was carried out in 96-well PCR plates using the ABI Prism 7900HT real-time PCR instrument (Applied Biosystems, Roche). […] The fluorescent signal was measured at the end of the annealing/elongation step in each cycle.

| SMILES | survival of CD8+ lymphoma cells [1] | CD150 expression on CD8+ thymocytes [2] | p-STAT5 expression in thymocytes [3] | number of CD8+ thymocytes [4] | age before which treated mice were free of lymphomas [5] | percentage of treated mice that developed lymphoma by 30 weeks of age [5] | apoptosis of lymphoma cells (Annexin V) [6] | expression of genes up-regulated in NOD.Stat5bTg mice (Ckmt2, Dgat2, Myl4, Csrp3, Nppa, Sln and Myh6) in thymocytes [7] | CD150 expression in peripheral blood CD8+ T cells [2] | STAT5 activation (pSTAT5) in peripheral blood CD8+ T cells [3] |
| --- | --- | --- | --- | --- | --- | --- | --- | --- | --- | --- |
| O=C(NN=Cc1coc2ccccc2c1=O)c1cccnc1 [CNH, chromone-based nicotinyl hydrazone] | did not alter | significantly decreased | did not decrease | significantly decreased | ≥ 27 weeks | 17% | significantly increased | did not significantly down-regulate | – | – |
| N#C/C(=C/c1ccc(O)c(O)c1)C(=O)NCc1ccccc1 [AG490] | did not alter | inhibited | dramatic decrease | greatly decreased | – | – | significantly increased | did not significantly down-regulate | – | – |
| COc1cc(O)c(CC=C(C)C)c(O)c1C(=O)/C=C/c1ccc(O)cc1 [Xanthohumol] | – | – | – | – | – | – | – | – | significantly inhibit | significantly inhibit |
| O=c1cc(-c2ccc(O)cc2)oc2cc(O)cc(O)c12 [Apigenin] | – | – | – | – | – | – | – | – | significantly inhibit | significantly inhibit |
